Experimental data from patent US11274097B2, “2-(het)aryl-substituted condensed bicyclic heterocycle derivatives as pest control agents” (BAYER CROPSCIENCE AKTIENGESELLSCHAFT, priority 2014, dated 2022).
Where two headings read alike, the source gives them in different places.

Key:
[1] = log P by HPLC on a reversed-phase column (C 18), EEC Directive 79/831 Annex V.A8; assay type: physicochemical; settings: for LOGP_NEUTRAL: pH 7.8, 0.001 molar aqueous ammonium hydrogencarbonate/acetonitrile; for chromatographic logP: reversed-phase HPLC column (C 18)
Experimental: The log P values are measured according to EEC Directive 79/831 Annex V.A8 by HPLC (high-performance liquid chromatography) on a reversed-phase column (C 18). Temperature: 55° C. The LC-MS determination in the acidic range is effected at pH 2.7 using 0.1% aqueous formic acid and acetonitrile (contains 0.1% formic acid) as eluents, linear gradient from 10% acetonitrile to 95% acetonitrile. Called log P (HCOOH) in the table. LC-MS determination in the neutral range is effected at pH 7.8 with 0.001 molar aqueous ammonium hydrogencarbonate solution and acetonitrile as eluents; linear gradient from 10% acetonitrile to 95% acetonitrile. Called log P (neutral) in the table. Calibration is effected with unbranched alkan-2-ones (having 3 to 16 carbon atoms) with known log P values (log P values determined on the basis of the retention times by linear interpolation between two successive alkanone s).

Phaedon cochleariae = Phaedon cochleariae spray test (PHAECO); assay type: in vivo; settings: application rate 500 g/ha; larvae; after 7 days
Experimental: Phaedon cochleariae—Spray Test (PHAECO)
Solvent: 78.0 parts by weight of acetone • • 1.5 parts by weight of dimethylformamide
Emulsifier: alkylaryl polyglycol ether
To produce an appropriate active ingredient formulation, 1 part by weight of active ingredient is dissolved using the stated parts by weight of solvent and made up with water containing an emulsifier concentration of 1000 ppm until the desired concentration is attained. To produce further test concentrations, the preparation is diluted with emulsifier-containing water.
Discs of Chinese cabbage leaves (Brassica pekinensis) are sprayed with an active ingredient formulation of the desired concentration and, after drying, populated with larvae of the mustard beetle (Phaedon cochleariae).
After 7 days, the efficacy in % is determined. 100% means that all the beetle larvae have been killed; 0% means that no beetle larvae have been killed.

[2] = acidic range, pH 2.7, 0.1% aqueous formic acid/acetonitrile, 55° C.
[3] = acidic range, pH 2.7, 0.1% aqueous formic acid/acetonitrile, 55° C., read-out: LOGP_HCOOH
[4] = neutral range, pH 7.8, read-out: log P (neutral)

Row | Compound | LOGP_HCOOH [1, 2] | LOGP_NEUTRAL ([1]; neutral range, 55° C.) | chromatographic logP [1, 3] | chromatographic logP [1, 4] | efficacy (Phaedon cochleariae) [%]
1 | CCCSc1cc(C(F)(F)F)cnc1-c1nc2cc(C(F)(F)F)ncc2n1C [Example I-31] | 3.94 | 3.86 | – | – | 100
2 | CC[S+]([O-])c1cccnc1-c1nc2cc(C(F)(F)F)ncc2n1C (centres unmarked) [Example I-33] | 2.12 | 2.11 | – | – | –
3 | CCSc1ccccc1C(=O)Nc1cc(C(F)(F)F)ncc1O [VIII-02, 2-(ethylsulphanyl)-N-[5-hydroxy-2-(trifluoromethyl)pyridin-4-yl]benzamide] | – | – | – | 1.59 | –
4 | CCSc1ccccc1-c1nc2cc(C(F)(F)F)ncc2o1 [Example I-35, 2-[2-(Ethylsulphanyl)phenyl]-6-(trifluoromethyl)[1,3]oxazolo[5,4-c]pyridine] | 4.03 | 4.07 | – | 4.07 | –
5 | CCS(=O)(=O)c1cccnc1-c1nc2cc(C(F)(F)F)ncc2n1C [Example I-15] | 1.95 | 1.92 | – | – | –
6 | Cn1c(-c2ncc(C(F)(F)F)cc2S(=O)(=O)CCF)nc2cc(C(F)(F)F)ncc21 [Example I-57] | 2.89 | 2.82 | – | – | –
7 | CC(C)Sc1cc(C(F)(F)F)cnc1-c1nc2cc(C(F)(F)F)ncc2n1C [Example I-41] | 3.80 | 3.73 | – | – | 100
8 | CC(C)[S+]([O-])c1cc(C(F)(F)F)cnc1-c1nc2cc(C(F)(F)F)ncc2n1C (centres unmarked) [Example I-8] | 3.54 | 3.46 | – | – | –
9 | CCS(=O)(=O)c1cc(C(F)(F)F)cnc1-c1nc2cc(-n3ccc(C(F)(F)F)n3)ncc2n1C [Example I-77] | 3.90 | 3.81 | – | – | –
10 | Cn1c(-c2ccc(C(F)(F)F)cc2[S+](C)[O-])nc2cc(C(F)(F)F)ncc21 (centres unmarked) [Example I-30] | 2.41 | 2.36 | – | – | 83
11 | CCCSc1ccc(OC)nc1-c1nc2cc(C(F)(F)F)ncc2n1C [Example I-66] | 3.50 | 3.42 | – | – | –
12 | CSc1cc(Cl)ccc1-c1nc2cc(C(F)(F)F)ncc2o1 [Example I-34] | 4.38 | 4.41 | – | – | –
13 | CCSc1cc(C(F)(F)F)cnc1-c1nc2cc(-c3ccc(C(F)(F)F)cc3)ncc2n1C [Example I-64, 2-[3-ethylsulphanyl-5-(trifluoromethyl)-2-pyridyl]-3-methyl-6-[4-(trifluoromethyl)-phenyl]imidazo[4,5-c]pyridine] | 3.93 | 3.95 | – | 3.95 | –
14 | CCCS(=O)(=O)c1ccc(OC)nc1-c1nc2cc(C(F)(F)F)ncc2n1C [Example I-71] | 2.93 | – | – | – | –
15 | CCS(=O)(=O)c1cc(C(F)(F)F)cnc1-c1nc2cc(-n3cc(C(F)(F)F)cn3)ncc2n1C [Example I-76] | 3.84 | 3.73 | – | – | –
16 | CCS(=O)(=O)c1cc(C#N)cnc1-c1nc2cc(C(F)(F)F)ncc2n1C [Example I-72] | 2.32 | 2.26 | – | – | –
17 | COc1ccc(SC)c(-c2nc3cc(C(F)(F)F)ncc3n2C)n1 [Example I-67] | 2.75 | 2.70 | – | – | –
18 | CCCS(=O)(=O)c1cc(C(F)(F)F)cnc1-c1nc2cc(C(F)(F)F)ncc2n1C [Example I-32] | 3.37 | 3.32 | – | – | –
19 | CSc1cc(Cl)ccc1-c1nc2nc(C(F)(F)F)ncc2o1 [Example I-1] | 3.86 | 3.77 | – | – | –
20 | CCSc1cc(C(N)=O)cnc1-c1nc2cc(C(F)(F)F)ncc2n1C [Example I-60] | 1.77 | 1.76 | – | – | –
21 | CC(C)S(=O)(=O)c1cc(C(F)(F)F)cnc1-c1nc2cc(C(F)(F)F)ncc2n1C [Example I-16] | 3.26 | 3.21 | – | – | –
22 | Cn1c(-c2ncc(C(F)(F)F)cc2SCCO)nc2cc(C(F)(F)F)ncc21 [Example I-59] | 2.41 | 2.31 | – | – | –
23 | Cn1c(-c2ccccc2S(=O)(=O)C2COC2)nc2cc(C(F)(F)F)ncc21 [Example I-27] | 1.87 | 1.84 | – | – | –
24 | CCSc1cc(C(F)(F)F)cnc1-c1nc2cc(-n3ccc(C(F)(F)F)n3)ncc2n1C [Example I-69] | 4.37 | 4.32 | – | – | –
25 | Cn1c(-c2ncc(C(F)(F)F)cc2S(=O)(=O)CCO)nc2cc(C(F)(F)F)ncc21 [Example I-58] | – | 2.19 | – | – | –

The next lines start with results.

Row | LOGP_HCOOH [1, 2] | LOGP_NEUTRAL ([1]; neutral range, 55° C.) | chromatographic logP [1, 3] | chromatographic logP [1, 4] | Compound | efficacy (Phaedon cochleariae) [%]
26 | 2.75 | 2.74 | – | – | CSc1cc(Cl)ccc1-c1nc2nc(C(F)(F)F)ncc2n1C [Example I-6] | –
27 | – | 3.36 | 3.49 | 3.36 | CCSc1cc(C(F)(F)F)cnc1-c1nc2cc(-n3cnc(C(F)(F)F)c3)ncc2n1C [Example I-74, 2-[3-ethylsulphanyl-5-(trifluoromethyl)-2-pyridyl]-3-methyl-6-[4-(trifluoromethyl)-imidazol-1-yl]imidazo[4,5-c]pyridine] | –
28 | – | 3.16 | 3.22 | 3.16 | CSc1cc(C(F)(F)F)cnc1-c1nc2cc(C(F)(F)F)ncc2n1C [Example I-3, 3-methyl-2-[3-(methylsulphanyl)-5-(trifluoromethyl)pyridin-2-yl]-6-(trifluoro-methyl)-3H-imidazo[4,5-c]pyridine] | 100
29 | 3.08 | 2.97 | – | – | CSc1cc(Cl)ccc1-c1nc2cc(C(F)(F)F)ncc2n1C [Example I-25] | 100
30 | 4.37 | 4.31 | – | – | CCSc1cc(C(F)(F)F)cnc1-c1nc2cc(-n3cc(C(F)(F)F)cn3)ncc2n1C [Example I-65] | –
31 | – | – | – | 3.09 | CNc1cnc(C(F)(F)F)cc1NC(=O)c1ncc(C(F)(F)F)cc1Cl [VIII-01, 3-chloro-N-[5-(methylamino)-2-(trifluoromethyl)pyridin-4-yl]-5-(trifluoromethyl)pyridine-2-carboxamide] | –
32 | 2.94 | 2.84 | – | – | CCS(=O)(=O)c1cc(C(F)(F)F)cnc1-c1nc2cc(-n3cnc(C(F)(F)F)c3)ncc2n1C [Example I-75] | –
33 | 3.15 | 3.10 | – | – | FC(F)(F)c1cc2nc(-c3ccccc3SC3COC3)oc2cn1 [Example I-40] | –
34 | 3.30 | 3.26 | – | – | CSc1cc(C(F)(F)F)ccc1-c1nc2cc(C(F)(F)F)ncc2n1C [Example I-5] | 100
35 | – | – | – | 2.96 | Cn1c(-c2ncc(C(F)(F)F)cc2Cl)nc2cc(C(F)(F)F)ncc21 [IX-01, 2-[3-chloro-5-(trifluoromethyl)pyridin-2-yl]-3-methyl-6-(trifluoromethyl)-3H-imidazo[4,5-c]pyridine] | –
36 | 3.66 | 3.64 | – | – | CCSc1ccccc1-c1nc2nc(C(F)(F)F)ncc2o1 [Example I-9] | –
37 | 2.72 | 2.67 | – | – | CCS(=O)(=O)CCS(=O)(=O)c1cc(C(F)(F)F)cnc1-c1nc2cc(C(F)(F)F)ncc2n1C [Example I-7] | –
38 | 2.17 | 2.15 | – | – | CCS(=O)(=O)c1c(Cl)cccc1-c1nc2cc(C(F)(F)F)ncc2n1C [Example I-62] | –
39 | 2.08 | 2.05 | – | – | Cn1c(-c2ccc(F)cc2S(C)(=O)=O)nc2cc(C(F)(F)F)ncc21 [Example I-20] | –
